Article PMC6318274, “Lattice engineering enables definition of molecular features allowing for potent small-molecule inhibition of HIV-1 entry” (Nature Communications, 2019)
Read-outs that look alike come from different tables or passages of the source.

Test system: HIV-1 Env-pseudoviruses (208-strain panel)
Experiment: microbe, parasite or virus in culture
Assay type: cell-based
Settings: Human immunodeficiency virus 1, TZM-bl, read-out: IC50
Description: Neutralization was measured using single-round-of-infection HIV-1 Env-pseudoviruses and TZM-bl target cells (ARP Cat No. #8129)[44],[45]. Compounds were prepared at 400 μM with 4% DMSO (dimethyl sulfoxide) in PBS (phosphate-buffered saline) and diluted 20 times as the starting concentration for serial dilution in the neutralization assays. […] After incubation at 37 °C for 2 days, infection of target cells was measured by luciferase activity. Neutralization curves were fit by nonlinear regression using a five-parameter hill slope equation[45].

COc1cnc(-c2csc(C(=O)NCCO)n2)c2[nH]cc(C(=O)C(=O)N3CCC(=C(C#N)c4ccccc4)CC3)c12 [BMS-818251]
IC50 (CNE5, clade AE): 465 nM
IC50 (CNE7, clade BC): 0.4 nM
IC50 (CNE8, clade AE): 2680 nM
IC50 (CNE10 (Clade B)): 0.1 nM
IC50 (CNE12, clade B): 2 nM
IC50 (CNE14, clade B): 1120 nM
IC50 (CNE15, clade BC): 0.1 nM
IC50 (CNE19, clade BC): 0.1 nM
IC50 (CNE20 (Clade BC)): 6 nM
IC50 (CNE21, clade BC): 0.3 nM
IC50 (CNE30, clade C): 0.2 nM
IC50 (CNE31, clade C): 1 nM
IC50 (CNE40, clade BC): 1 nM
IC50 (CNE55, clade AE): 282 nM
IC50 (CNE56 (Clade AE)): 797 nM
IC50 (CNE57, clade B): 0.3 nM
IC50 (CNE58, clade C): 0.2 nM
IC50 (CNE59, clade AE): 506 nM
IC50 (Ce1176.A3, clade C): 0.9 nM
IC50 (DJ263.8 (Clade AG)): 0.2 nM
IC50 (DU123.06, clade C): 0.3 nM
IC50 (DU151.02, clade C): 0.2 nM
IC50 (DU156.12 (Clade C)): 0.2 nM
IC50 (DU172.17, clade C): 0.1 nM
IC50 (DU422.01, clade C): 0.7 nM
IC50 (HO86.8, clade B): 4 nM
IC50 (HT593.1, clade B): 0.1 nM
IC50 (JRFL.JB, clade B): 0.1 nM
IC50 (KER2008.12 (Clade A)): 15 nM
IC50 (KER2018.11, clade A): 0.3 nM
IC50 (KNH1209.18, clade A): 0.4 nM
IC50 (M02138, clade AE): 28 nM
IC50 (MB201.A1 (Clade A)): 9 nM
IC50 (MB539.2B7, clade A): 2 nM
IC50 (MI369.A5, clade A): 0.3 nM
IC50 (MN.3, clade B): 0.6 nM
IC50 (MS208.A1, clade A): 0.3 nM
IC50 (MW965.26, clade C): 6 nM
IC50 (NKU3006.ec1 (Clade D)): 0.2 nM
IC50 (P0402.c2.11 (Clade G)): 0.2 nM
IC50 (P1981.C5.3, clade G): 0.5 nM
IC50 (PVO.04 (Clade B)): 0.4 nM
IC50 (Q23.17, clade A): 0.5 nM
IC50 (Q168.a2, clade AD): 3 nM
IC50 (Q259.17, clade A): 7 nM
IC50 (Q461.e2, clade AD): 0.3 nM
IC50 (Q769.d22, clade A): 1 nM
IC50 (Q769.h5, clade A): 2 nM
IC50 (Q842.d12, clade A): 0.4 nM
IC50 (QH209.14M.A2, clade A): 60 nM
IC50 (QH0515.01, clade B): 31 nM
IC50 (QH0692.42, clade B): 0.7 nM
IC50 (R1166.c1, clade AE): > 20000 nM
IC50 (R2184.c4, clade AE): 2040 nM
IC50 (R3265.c6 (Clade AE)): 122 nM
IC50 (REJO.67 (Clade B)): 590 nM
IC50 (RHPA.7, clade B): 0.5 nM
IC50 (RW020.2, clade A): 0.7 nM
IC50 (SF162.LS, clade B): 0.1 nM
IC50 (SO18.18, clade C): 0.2 nM
IC50 (SS1196.01, clade B): 579 nM
IC50 (T33-7, clade AG): 252 nM
IC50 (T250-4, clade AG): 0.4 nM
IC50 (T251-18, clade AG): 0.6 nM
IC50 (T253-11 (Clade AG)): 0.1 nM
IC50 (T255-34, clade AG): 2 nM
IC50 (T257-31, clade AG): 1 nM
IC50 (T266-60, clade AG): 42 nM
IC50 (T278-50, clade AG): 0.1 nM
IC50 (T280-5 (Clade AG)): 0.4 nM
IC50 (TH023.6, clade AE): > 20000 nM
IC50 (TH966.8, clade AE): 923 nM
IC50 (TH976.17, clade AE): 1280 nM
IC50 (THRO.18, clade B): 0.2 nM
IC50 (TRJO.58, clade B): 0.1 nM
IC50 (TRO.11, clade B): 127 nM
IC50 (TV1.29, clade C): 1 nM
IC50 (TZA125.17, clade C): 1 nM
IC50 (TZBD.02, clade C): 0.3 nM
IC50 (UG021.16, clade D): 0.2 nM
IC50 (UG024.2, clade D): > 20000 nM
IC50 (UG037.8, clade A): 10 nM
IC50 (WITO.33, clade B): 0.8 nM
IC50 (X1254.c3, clade G): 0.2 nM
IC50 (X1632.S2.B10, clade G): 0.3 nM
IC50 (X2088.c9, clade G): 0.3 nM
IC50 (X2131.C1.B5, clade G): 1 nM
IC50 (X2278.C2.B6, clade B): 440 nM
IC50 (YU2.DG, clade B): 0.5 nM
IC50 (ZA012.29, clade C): 0.5 nM
IC50 (ZM53.12, clade C): 0.4 nM
IC50 (ZM55.28a, clade C): 0.3 nM
IC50 (ZM106.9 (Clade C)): 2 nM
IC50 (ZM109.4, clade C): 0.1 nM
IC50 (ZM135.10a, clade C): 153 nM
IC50 (ZM176.66, clade C): 1 nM
IC50 (ZM197.7, clade C): 0.2 nM
IC50 (ZM214.15, clade C): 0.2 nM
IC50 (ZM215.8, clade C): 0.1 nM
IC50 (ZM233.6, clade C): 0.1 nM
IC50 (ZM249.1, clade C): 0.4 nM
IC50 ([…], clade C): 0.1 nM
IC50 ([…], clade G): 0.6 nM
